How the values were obtained:
[1] = test system: Blumeria graminis f. sp. tritici (Erysiphe graminis f. sp. tritici); assay: Blumeria graminis f. sp. tritici / wheat / leaf disc preventative (powdery mildew on wheat); format: in vivo; details: foliar, wheat leaf segments cv. Kanzler, inoculated 1 day after application, assessed 6-8 days after application, vs untreated control
Procedure: Example B3: Blumeria graminis f. sp. tritici (Erysiphe graminis f. so. tritici)/Wheat/Leaf Disc Preventative (Powdery Mildew on Wheat) Wheat leaf segments cv. Kanzler are placed on agar in a multiwell plate (24-well format) and sprayed with the formulated test compound diluted in water. The leaf disks are inoculated by shaking powdery mildew infected plants above the test plates 1 day after application. The inoculated leaf disks are incubated at 20°° C. and 60% rh under a light regime of 24 h darkness followed by 12 h light/12 h darkness in a climate chamber and the activity of a compound is assessed as percent disease control compared to untreated when an appropriate level of disease damage appears on untreated check leaf segments (6-8 days after application). […]-45, and P-50.

[2] = test system: Monographella nivalis (Microdochium nivale); assay: Monographella nivalis (Microdochium nivale) / liquid culture (foot rot cereals); format: cell-based; details: PDB liquid culture, 24° C., growth inhibition determined photometrically 4-5 days after application, vs untreated control
Procedure: (§1) Example B5: Monographella nivalis (Microdochium nivale)/Liquid Culture (Foot Rot Cereals) Conidia of the fungus from cryogenic storage are directly mixed into nutrient broth (PDB potato dextrose broth). After placing a (DMSO) solution of test compound into a microtiter plate (96-well format), the nutrient broth containing the fungal spores is added. The test plates are incubated at 24° C. and the inhibition of growth is determined photometrically 4-5 days after application. […] […]-49, and P-50.

[3] = test system: Puccinia recondita f. sp. tritici; assay: Puccinia recondita f. sp. tritici / wheat / leaf disc preventative (brown rust); format: in vivo; details: foliar, wheat leaf segments cv. Kanzler, inoculated 1 day after application, assessed 7-9 days after application, vs untreated control
Procedure: Example B8: Puccinia recondita f. sp. tritici/Wheat/Leaf Disc Preventative (Brown rust) Wheat leaf segments cv. Kanzler are placed on agar in multiwell plates (24-well format) and sprayed with the formulated test compound diluted in water. The leaf disks are inoculated with a spore suspension of the fungus 1 day after application. The inoculated leaf segments are incubated at 19° C. and 75% rh under a light regime of 12 h light/12 h darkness in a climate cabinet and the activity of a compound is assessed as percent disease control compared to untreated when an appropriate level of disease damage appears in untreated check leaf segments (7-9 days after application).

[4] = test system: Mycosphaerella graminicola (Septoria tritici); assay: Mycosphaerella graminicola (Septoria tritici) / liquid culture (Septoria blotch); format: cell-based; details: Zymoseptoria tritici, PDB liquid culture, 24° C., growth inhibition determined photometrically 4-5 days after application, vs untreated control
Procedure: Example B12: Mycosphaerella graminicola (Septoria tritici)/Liquid Culture (Septoria Blotch) Conidia of the fungus from cryogenic storage are directly mixed into nutrient broth (PDB potato dextrose broth). After placing a (DMSO) solution of test compound into a microtiter plate (96-well format), the nutrient broth containing the fungal spores is added. The test plates are incubated at 24° C. and the inhibition of growth is determined photometrically 4-5 days after application. […] […]-48, and P-49.

[5] = test system: Glomerella lagenarium (Colletotrichum lagenarium); assay: Glomerella lagenarium (Colletotrichum lagenarium) / liquid culture (anthracnose); format: cell-based; details: Colletotrichum orbiculare, PDB liquid culture, 24° C., growth inhibition measured photometrically 3-4 days after application, vs untreated control
Procedure: as §1, with “B2: Glomerella lagenarium (Colletotrichum lagenarium)/Liquid” for “B5: Monographella nivalis (Microdochium nivale)/Liquid”, “(Anthracnose)” for “(Foot Rot Cereals)”, “measured” for “determined”, “3-4” for “4-5”

Alternaria solani = Alternaria solani / tomato / leaf disc (early blight); format: in vivo; details: foliar, tomato leaf disks cv. Baby, inoculated 2 days after application, assessed 5-7 days after application, vs untreated control
Procedure: Example B1: Alternaria solani/Tomato/Leaf Disc (Early Blight) Tomato leaf disks cv. Baby are placed on agar in multiwell plates (24-well format) and sprayed with the formulated test compound diluted in water. The leaf disks are inoculated with a spore suspension of the fungus 2 days after application. The inoculated leaf disks are incubated at 23° C./21° C. […] […]-43, and P-44.

[6] = test system: Mycosphaerella arachidis (Cercospora arachidicola); assay: Mycosphaerella arachidis (Cercospora arachidicola) / liquid culture (early leaf spot); format: cell-based; details: PDB liquid culture, 24° C., growth inhibition determined photometrically 4-5 days after application, vs untreated control
Procedure: Example B6: Mycosphaerella arachidis (Cercospora arachidicola)/Liquid Culture (Early Leaf Spot) Conidia of the fungus from cryogenic storage are directly mixed into nutrient broth (PDB potato dextrose broth). After placing a (DMSO) solution of test compound into a microtiter plate (96-well format), the nutrient broth containing the fungal spores is added. The test plates are incubated at 24° C. and the inhibition of growth is determined photometrically 4-5 days after application. […] […]-44, and P-48.

[7] = test system: Magnaporthe grisea (Pyricularia oryzae); assay: whole plant or invertebrate; format: in vivo; details: foliar, read-out: control of Magnaporthe grisea
[8] = test system: Botryotinia fuckeliana (Botrytis cinerea); assay: Botryotinia fuckeliana (Botrytis cinerea) / liquid culture (gray mould); format: cell-based; details: 20 ppm; Vogels broth liquid culture, 24° C., growth inhibition determined photometrically 3-4 days after application; vs untreated control
Procedure: Example B13: Botryotinia fucleliana (Botrytis cinerea)/Liquid Culture (Gray Mould) Conidia of the fungus from cryogenic storage are directly mixed into nutrient broth (Vogels broth). After placing a (DMSO) solution of test compound into a microtiler plate (96-well format), the nutrient broth containing the fungal spores is added. The test plates are incubated at 24° C. and the inhibition of growth is determined photometrically 3-4 days after application. […] P-25.

In the case of `COc1ncc(Nc2ccccc2)nc1C(=O)NC1CCC1(C)C` (stereo not shown) [Compound P-4, 6-anilino-N-(2,2-dimethylcyclobutyl)-3-methoxy-pyrazine-2-carboxamide], the pest or weed control at 200 ppm [1] is reported as ≥ 80%, the inhibition of growth at 20 ppm [2] is reported as ≥ 80% and the pest or weed control at 200 ppm [3] is reported as ≥ 80%. For the same compound, the inhibition of growth at 20 ppm [4] was ≥ 80%, the inhibition of growth at 20 ppm [5] was ≥ 80% and the pest or weed control at 200 ppm (Alternaria solani) was ≥ 80%. For the same compound, the inhibition of growth at 20 ppm [6] was ≥ 80%.
For `COc1ncc(Nc2cccc(F)c2)nc1C(=O)NC1CCC1(C)C` (stereo not shown) [Compound P-5, N-(2.2-dimethylcyclobutyl)-6-(3-fluoroanilino)-3-methoxy-pyrazine-2-carboxamide], the pest or weed control at 200 ppm [7] was ≥ 80%, the pest or weed control at 200 ppm [1] was ≥ 80% and the inhibition of growth at 20 ppm [2] was ≥ 80%. For the same compound, the pest or weed control at 200 ppm [3] was ≥ 80%, the inhibition of growth at 20 ppm [4] was ≥ 80% and the inhibition of growth at 20 ppm [5] was ≥ 80%. For the same compound, the pest or weed control at 200 ppm (Alternaria solani) was ≥ 80% and the inhibition of growth at 20 ppm [6] was ≥ 80%.
With `COc1ncc(NCC2CC2)nc1C(=O)NC1CCC1(C)C` (stereo not shown) [Compound P-9, 6-(cyclopropylmethylamino)-N-(2,2-dimethylcyclobutyl)-3-methoxy-pyrazine-2-carboxamide] the pest or weed control at 200 ppm [1] was ≥ 80%, the inhibition of growth at 20 ppm [2] was ≥ 80% and the pest or weed control at 200 ppm [3] was ≥ 80%. For the same compound, the inhibition of growth at 20 ppm [4] was ≥ 80%, the inhibition of growth at 20 ppm [5] was ≥ 80% and the pest or weed control at 200 ppm (Alternaria solani) was ≥ 80%. For the same compound, the inhibition of growth at 20 ppm [6] was ≥ 80%.
With `COc1ncc(Nc2cc(F)cc(F)c2)nc1C(=O)NC1COC2(CC2)C1` (stereo not shown) [Compound P-20, 6-(3,5-difluoroanilino)-3-methoxy-N-(4-oxaspiro[2.4]heptan-6-yl)pyrazine-2-carboxamide] the pest or weed control at 200 ppm [7] was ≥ 80%, the pest or weed control at 200 ppm [1] was ≥ 80% and the inhibition of growth at 20 ppm [2] was ≥ 80%. For the same compound, the pest or weed control at 200 ppm [3] was ≥ 80%, the inhibition of growth at 20 ppm [4] was ≥ 80% and the inhibition of growth at 20 ppm [5] was ≥ 80%. For the same compound, the pest or weed control at 200 ppm (Alternaria solani) was ≥ 80% and the inhibition of growth at 20 ppm [6] was ≥ 80%.
With `COc1ncc(Nc2cc(F)cc(F)c2)nc1C(=O)NCC1(C)CCOC2(CCC2)C1` (stereo not shown) [Compound P-22, 6-(3,5-difluoroanilino)-3-methoxy-N-[(8-methyl-5-oxaspiro[3.5]nonan-8-yl)methyl]pyrazine-2-carboxamide] the pest or weed control at 200 ppm [7] was ≥ 80%, the pest or weed control at 200 ppm [1] was ≥ 80% and the inhibition of growth at 20 ppm [2] was ≥ 80%. The pest or weed control at 200 ppm [3] was ≥ 80%, the inhibition of growth at 20 ppm [4] was ≥ 80% and the inhibition of growth at 20 ppm [5] was ≥ 80%. The pest or weed control at 200 ppm (Alternaria solani) was ≥ 80% and the inhibition of growth at 20 ppm [6] was ≥ 80%.
With `COc1ncc(Nc2cc(F)cc(F)c2)nc1C(=O)NCC1(C(F)(F)F)CC1` [Compound P-25, 6-(3,5-difluoroanilino)-3-methoxy-N-[[1-(trifluoromethyl)cyclopropyl]methyl] pyrazine-2-carboxamide] the pest or weed control at 200 ppm [7] was ≥ 80%, the pest or weed control at 200 ppm [1] was ≥ 80% and the inhibition of growth at 20 ppm [2] was ≥ 80%. The pest or weed control at 200 ppm [3] was ≥ 80%, the inhibition of growth at 20 ppm [4] was ≥ 80% and the inhibition of growth at 20 ppm [5] was ≥ 80%. For the same compound, the pest or weed control at 200 ppm (Alternaria solani) was ≥ 80%, the inhibition of growth at 20 ppm [6] was ≥ 80% and the “control of Botryotinia fuckeliana” value [8] was “at least 80%”.
In the case of `COc1ncc(Nc2cc(F)cc(F)c2)nc1C(=O)NCc1cccc2c1OC(F)(F)O2` [Compound P-29, 6-(3,5-difluoroanilino)-N-[(2,2-difluoro-1.3-benzodioxol-4-yl)methyl]-3-methoxy-pyrazine-2-carboxamide], the pest or weed control at 200 ppm [7] is reported as ≥ 80%, the inhibition of growth at 20 ppm [2] is reported as ≥ 80% and the pest or weed control at 200 ppm [3] is reported as ≥ 80%. For the same compound, the inhibition of growth at 20 ppm [4] was ≥ 80%, the inhibition of growth at 20 ppm [5] was ≥ 80% and the inhibition of growth at 20 ppm [6] was ≥ 80%.
In the case of `COc1ncc(Nc2cc(F)nc(F)c2)nc1C(=O)NCC1(C)CCOC2(CCC2)C1` (stereo not shown) [Compound P-34], the pest or weed control at 200 ppm [7] is reported as ≥ 80%, the pest or weed control at 200 ppm [3] is reported as ≥ 80% and the inhibition of growth at 20 ppm [5] is reported as ≥ 80%.
With `COc1ncc(Nc2cc(F)cc(F)c2)nc1C(=O)NC1(C)CC1` [Compound P-37, 6-(3,5-difluoroanilino)-3-methoxy-N-(1-methylcyclopropyl) pyrazine-2-carboxamide] the pest or weed control at 200 ppm [7] was ≥ 80%, the pest or weed control at 200 ppm [1] was ≥ 80% and the inhibition of growth at 20 ppm [2] was ≥ 80%. For the same compound, the pest or weed control at 200 ppm [3] was ≥ 80%, the inhibition of growth at 20 ppm [4] was ≥ 80% and the inhibition of growth at 20 ppm [5] was ≥ 80%. For the same compound, the pest or weed control at 200 ppm (Alternaria solani) was ≥ 80%.
`COc1ncc(Nc2cc(F)cc(F)c2)nc1C(=O)NC(C)(C)C` [Compound P-38, N-tert-butyl-6-(3,5-difluoroanilino)-3-methoxy-pyrazine-2-carboxamide] was tested, and the pest or weed control at 200 ppm [7] was ≥ 80%, the pest or weed control at 200 ppm [1] was ≥ 80% and the inhibition of growth at 20 ppm [2] was ≥ 80%. The pest or weed control at 200 ppm [3] was ≥ 80%, the inhibition of growth at 20 ppm [4] was ≥ 80% and the inhibition of growth at 20 ppm [5] was ≥ 80%. The pest or weed control at 200 ppm (Alternaria solani) was ≥ 80% and the inhibition of growth at 20 ppm [6] was ≥ 80%.
`COc1ncc(Nc2cc(F)cc(F)c2)nc1C(=O)NCC(C)(C)C` [Compound P-39, 6-(3,5-difluoroanilino)-N-(2,2-dimethylpropyl)-3-methoxy-pyrazine-2-carboxamide] was tested, and the pest or weed control at 200 ppm [7] was ≥ 80%, the pest or weed control at 200 ppm [1] was ≥ 80% and the inhibition of growth at 20 ppm [2] was ≥ 80%. For the same compound, the pest or weed control at 200 ppm [3] was ≥ 80%, the inhibition of growth at 20 ppm [4] was ≥ 80% and the inhibition of growth at 20 ppm [5] was ≥ 80%. For the same compound, the pest or weed control at 200 ppm (Alternaria solani) was ≥ 80% and the inhibition of growth at 20 ppm [6] was ≥ 80%.
With `COc1ncc(Nc2cc(F)cc(F)c2)nc1C(=O)NC(C)CCCC(C)C` (stereo not shown) [Compound P-40, 6-(3,5-difluoroanilino)-N-(1,5-dimethylhexyl)-3-methoxy-pyrazine-2-carboxamide] the pest or weed control at 200 ppm [7] was ≥ 80%, the pest or weed control at 200 ppm [1] was ≥ 80% and the inhibition of growth at 20 ppm [2] was ≥ 80%. For the same compound, the pest or weed control at 200 ppm [3] was ≥ 80%, the inhibition of growth at 20 ppm [4] was ≥ 80% and the inhibition of growth at 20 ppm [5] was ≥ 80%. For the same compound, the inhibition of growth at 20 ppm [6] was ≥ 80%.
In the case of `COc1ncc(Nc2cc(F)cc(F)c2)nc1C(=O)NC1CCC1(C)C` (stereo not shown) [Compound P-43, 6-(3,5-difluoroanilino)-N-(2,2-dimethylcyclobutyl)-3-methoxy-pyrazine-2-carboxamide], the pest or weed control at 200 ppm [7] is reported as ≥ 80%, the pest or weed control at 200 ppm [1] is reported as ≥ 80% and the inhibition of growth at 20 ppm [2] is reported as ≥ 80%. The pest or weed control at 200 ppm [3] was ≥ 80%, the inhibition of growth at 20 ppm [4] was ≥ 80% and the inhibition of growth at 20 ppm [5] was ≥ 80%. The pest or weed control at 200 ppm (Alternaria solani) was ≥ 80% and the inhibition of growth at 20 ppm [6] was ≥ 80%.

Source: patent US12528778B2, “Microbiocidal derivatives” (SYNGENTA CROP PROTECTION AG, priority 2019, dated 2026)
